Experimental data from patent publication US20240398767A1, “INHIBITORS OF THE MTDH-SND1 PROTEIN COMPLEX FOR CANCER THERAPY” (The Trustees of Princeton University, priority 2021, published 2024).

How the values were obtained:
[1] = Toxicity in 4TO7 metastasis-bearing mice (ALT/AST, blood cell counts, small intestine); type: in vivo
Method: FIG. 7E, Serum from mice in FIG. 7A were collected for ALT and AST activity measurement following the standard protocol (Sigma). Data represent mean±SEM. AST, n=8 replicates from 6 mice; ALT, n=9 replicates from 6 mice. Significance determined by one-way ANOVA analysis with Sidak's test for multiple comparisons.
FIG. 7F, Blood samples were drawn from the heart of mice in FIG. 7A, and blood cell counts were performed with the Sysemx XN-3000 Hematology System (Sysmex America, Inc.). Data represent mean±SEM. n=6 mice per group. Significance determined by one-way ANOVA analysis with Sidak's test for multiple comparisons.
FIG. 7G, Small intestine samples were obtained from mice in FIG. 7A. H&E and Alcian blue staining was performed on processed, sliced samples. Scale bar: 200 μm.
FIG. 7H, Quantification of Alcian blue staining results from FIG. 7G. Data represent mean±SEM. n=12 fields from 6 mice in each group. Significance determined by one-way ANOVA analysis with Sidak's test for multiple comparisons.

[2] = biological target: T1, MTDH-SND1 interaction in SCP28 tumors (Homo sapiens, UniProt Q7KZF4); experiment: In vivo split-luciferase bioluminescence in SCP28 tumors; design: species or system NSG female mice; details: 0.25 mg or 0.5 mg via tail-vein injection, 30 min after treatment
T1 construct: SND1-NLuc and CLuc-MTDH flanked by BamH 1 and Not 1 restriction sites were inserted into pcDNA3.1 and pRVPTO (retrovrial) vectors; expressed in transfected cells; host or cells: SCP28 cells stably transduced with pRVPTO retroviral vectors (packaged in H29 cells); in culture (A5) or as orthotopic tumours in NSG mice (A11)
T1 sequence (Q7KZF4 with tags, fused parts or gaps): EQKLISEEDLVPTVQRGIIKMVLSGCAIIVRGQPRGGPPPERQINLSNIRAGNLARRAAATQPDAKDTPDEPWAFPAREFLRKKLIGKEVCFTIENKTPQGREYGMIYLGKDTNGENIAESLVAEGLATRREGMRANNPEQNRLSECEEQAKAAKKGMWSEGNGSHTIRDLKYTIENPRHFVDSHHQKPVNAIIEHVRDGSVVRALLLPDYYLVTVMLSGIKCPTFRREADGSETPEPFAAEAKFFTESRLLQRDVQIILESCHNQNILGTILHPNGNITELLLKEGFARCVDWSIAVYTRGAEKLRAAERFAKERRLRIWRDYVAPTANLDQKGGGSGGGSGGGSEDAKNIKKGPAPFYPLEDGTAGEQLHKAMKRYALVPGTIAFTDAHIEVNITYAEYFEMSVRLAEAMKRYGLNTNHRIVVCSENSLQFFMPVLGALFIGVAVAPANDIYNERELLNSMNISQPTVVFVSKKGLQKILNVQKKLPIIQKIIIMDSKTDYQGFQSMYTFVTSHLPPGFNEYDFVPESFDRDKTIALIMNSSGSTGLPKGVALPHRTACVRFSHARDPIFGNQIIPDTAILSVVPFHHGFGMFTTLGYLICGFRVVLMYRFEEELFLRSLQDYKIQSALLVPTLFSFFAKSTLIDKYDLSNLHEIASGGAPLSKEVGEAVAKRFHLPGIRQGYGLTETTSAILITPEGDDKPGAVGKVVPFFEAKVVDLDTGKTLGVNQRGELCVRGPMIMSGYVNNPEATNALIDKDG
Method: FIG. 12A, NSG female mice were inoculated with 10 k of SCP28 cells that express split-luciferase components by MFP injection. Two weeks after injection, the mice were treated with 0.25 mg/mouse or 0.5 mg/mouse of C26-A6 via tail-vein injection. 30 min after the treatment, luciferase activity at primary tumors was measured.
FIG. 12B, Luciferase activity at primary tumors from mice in FIG. 12A. Data represent mean±SEM. n=3 mice. Significance determined by one-way ANOVA analysis with Dunnett's test for multiple comparisons.
To test the in vivo blocking effect of C26-A6 on MTDH-SND1 interaction, mice with SCP28 tumors that stably express split-luciferase components were treated with vehicle, 0.25 mg or 0.5 mg of C26-A6 via tail-vein injection followed by bioluminescence imaging.

[3] = test system: orthotopic PyMT tumors; experiment: Established orthotopic PyMT tumors in FVB female mice; type: in vivo
Method: FIG. 5B, Tumor size was determined. Vehicle, n=10 mice, C26-A6, n=12 mice. Significance determined by Two-Way Repeated Measures ANOVA test.
FIG. 5C, Tumor mass was determined. Vehicle, n=10 mice, C26-A6, n=12 mice. Size bar, 2 cm.
FIG. 5D, H&E staining was performed with lungs, and metastatic nodules were counted. The metastatic nodules of the representative lungs were highlighted with red and blue respectively. Vehicle, n=10 lungs; C26-A6, n=12 lungs. Size bar, 5 mm.
FIG. 13D, Primary tumors from experiment in FIG. 5B were stained with Ki67 and Cleaved-Caspase 3 (Casp-3) antibodies. Size bar, 100 μm.
FIG. 13E, Positive cells were quantified. Data represent mean±SEM. n=6 mice.
Next, established orthotopic PyMT tumors^4 were treated with vehicle or C26-A6 (FIG. 5A). […] The results were confirmed with SCP28 xenograft tumor model in NSG mice (FIGS. 13A-13C).
Methods: Animal models. All procedures involving mice and experimental protocols were approved by the Institutional Animal Care and Use Committees (IACUC) of Princeton University. According to the approved IACUC protocol (1881-20), the primary humane endpoint of tumor burden for an individual mouse is 20 mm in any dimension or a total volume of 4000 mm^3 for mice with multiple tumors. Mice were euthanized before exceeding the limit of tumor burden in this study. In the facility, mice were maintained at 20-22° C. with 14 h:10 h light:dark cycles at 40-70% relative humidity. The Mtdh^fl/fl ES cell lines generated by Mtdh targeting vector (CSD48311) was obtained from the KOMP Repository. The ES cells were injected into the C57BL/6 blastocysts followed by confirmation of germline transmission. Mtdh^fl/fl mice were crossed with FLPe mice to remove the selection marker in the vector. Genotyping (Forward primer: […] (SEQ ID NO:21); Reverse primer: […] (SEQ ID NO:22)) was performed to identify positive mice before they were crossed to other strains that were indicated in each experiment. FLPe (Stock No. 003946), MMTV-PyMT (Stock No. 002374), MMTV-WNT1 (Stock No. 002934), C3 (Stock No. 013591), UBC-Cre^ERT2 (Stock No. 007001), FVB (Stock No. 001800), Balb/C (Stock No. 000651), Athymic nude (Nude) (Stock No. 002019), and NOD Scid Gamma (NSG) (Stock No. 005557) were obtained from Jackson Laboratory. Mice in C57BL/6 background were backcrossed to FVB for at least 10 generations to change the background. […] The tumors were measured by calipers for calculation of tumor volumes (length×width^2/2). For cell lines that are stably labeled with a firefly luciferase expressing vector, lung metastases were monitored by bioluminescent imaging (BLI) and images were processed with Living Image 3D Analysis (version 1.0). […]

[4] = 15 mg/kg i.v., continuous treatment

Q: With `COc1ccc(Cl)cc1S(=O)(=O)Nc1cccn2nc(C)nc12` [Analog C26-A6] as the compound, how does the tolerability ([1]; 15 mg/kg 5 days per week) read?
A: well tolerated

Q: What about the “enhancement of chemotherapy toxicity” value ([1]; combined with paclitaxel) of the same compound?
A: did not further enhance the chemotherapy toxicity

Q: What about the “MTDH-SND1 interaction in vivo (luciferase activity at primary tumors)” value [2] of the same compound?
A: blocks MTDH-SND1 interaction in vivo in a dose-dependent manner

Q: And the primary tumor growth [3, 4]?
A: significantly inhibited

Q: What about the spontaneous lung metastasis [3, 4] of the same compound?
A: significantly inhibited

Q: What about the “tumor apoptosis (cleaved-Caspase 3)” value ([3]; IHC of primary tumors) of the same compound?
A: induced tumor apoptosis

Q: What about the “tumor proliferation (Ki67)” value ([3]; IHC of primary tumors) of the same compound?
A: reduced tumor proliferation
